Our source for the IC50 and inhibition values is patent publication US8552002B2 (Novartis AG, priority 2004, dated 2013).

Common to all, as to assay type: biochemical
The target of assay [1] is PDGFRβ (Homo sapiens, UniProt P09619). Nature of the assay: Inhibition of PDGFRβ. The procedure: Compounds selectively inhibiting the proliferation of these BCR-Abl transformed cells are tested for anti-proliferative activity on Ba/F3 cells expressing either wild type or the mutant forms of Bcr-abl. In addition, compounds are assayed to measure their capacity to inhibit FGFR35 (in an enzyme and cellular assay), FLT3, PDGFRβ, trkB, c-SRC, BMX, SGK, Tie2, Lck, JNK2α2, MKK4, c-RAF, MKK6, SAPK2α and SAPK2β kinases.

For assay [2], the target named is T1, TrkB (Homo sapiens, UniProt Q16620).
T1 construct: purchased Upstate (KinaseProfiler panel)
Put plainly: Upstate KinaseProfiler radio-enzymatic filter binding assay. To be noted: read-out: percentage inhibition of TrkB. How it is done:
(§1) Compounds of the invention are assessed for their ability to inhibit individual members of a panel of kinases (a partial, non-limiting list of kinases includes: Abl, BCR-Abl, BMX, FGFR35, Lck, JNK1, JNK2, CSK, RAF, MKK6 and P38). The compounds are tested in duplicates at a final concentration of 10 μM following this generic protocol. Note that the kinase buffer composition and the substrates vary for the different kinases included in the “Upstate KinaseProfiler™” panel. Kinase buffer (2.5 μL, 10×—containing MnCl2 when required), active kinase (0.001-0.01 Units; 2.5 μL), specific or Poly(Glu4-Tyr) peptide (5-500 μM or 0.01 mg/ml) in kinase buffer and kinase buffer (50 μM; 5 μL) are mixed in an eppendorf on ice. A Mg/ATP mix (10 μL; 67.5 (or 33.75) mM MgCl2, 450 (or 225) μM ATP and 1 μCi/μl [γ-^32P]-ATP (3000 Ci/mmol)) is added and the reaction is incubated at about 30° C. for about 10 minutes. The reaction mixture is spotted (20 μL) onto a 2 cm×2 cm P81 (phosphocellulose, for positively charged peptide substrates) or Whatman No. 1 (for Poly (Glu4-Tyr) peptide substrate) paper square. The assay squares are washed 4 times, for 5 minutes each, with 0.75% phosphoric acid and washed once with acetone for 5 minutes. The assay squares are transferred to a scintillation vial, 5 ml scintillation cocktail are added and ^32P incorporation (cpm) to the peptide substrate is quantified with a Beckman scintillation counter. Percentage inhibition is calculated for each reaction.

Assay [3] deals with T2, JNK2α2 (Homo sapiens, UniProt P45984).
T2 construct: purchased Upstate (KinaseProfiler panel)
The description is as above. As to conditions: read-out: percentage inhibition of JNK2α2. The procedure:
as §1

Assay [4] deals with T3, c-SRC (Homo sapiens, UniProt P12931).
T3 construct: purchased Upstate (KinaseProfiler panel)
Described as above. To be noted: read-out: percentage inhibition of c-SRC. How it is done: as §1

Assay [5] addresses T4, SAPK2α (Homo sapiens, UniProt Q16539).
T4 construct: purchased Upstate (KinaseProfiler panel)
Described as above. To be noted: read-out: percentage inhibition of SAPK2α. The procedure:
as §1

In assay [6] the target is T5, wild-type Abl (Homo sapiens, UniProt P00519).
T5 construct: purchased Upstate (KinaseProfiler panel)
The assay is described as above. To be noted: read-out: percentage inhibition of wild-type Abl. How it is done:
as §1

Assay [7] addresses T6, ROS (Homo sapiens, UniProt P08922).
T6 construct: purchased Upstate (KinaseProfiler panel)
The assay is described as above. To be noted: read-out: percentage inhibition of ROS. The procedure: as §1

Assay [8] addresses T7, SAPK2β (Homo sapiens, UniProt Q15759).
T7 construct: purchased Upstate (KinaseProfiler panel)
Described as above. To be noted: read-out: percentage inhibition of SAPK2β. The procedure:
as §1

Assay [9] deals with T8, MKK6 (Homo sapiens, UniProt P52564).
T8 construct: purchased Upstate (KinaseProfiler panel)
Described as above. As to conditions: read-out: percentage inhibition of MKK6. How it is done:
as §1

Assay [10] addresses T9, CSK (Homo sapiens, UniProt P41240).
T9 construct: purchased Upstate (KinaseProfiler panel)
The description is as above. As to conditions: read-out: percentage inhibition of CSK. How it is done: as §1

In assay [11] the target is T10, c-RAF (Homo sapiens, UniProt P04049).
T10 construct: purchased Upstate (KinaseProfiler panel)
The description is as above. To be noted: read-out: percentage inhibition of c-RAF. How it is done: as §1

Assay [12] concerns the target T11, p70S6K (Homo sapiens, UniProt P23443).
T11 construct: purchased Upstate (KinaseProfiler panel)
The assay is described as above. To be noted: read-out: percentage inhibition of p70S6K. The procedure: as §1

Assay [13] deals with T12, lck (Homo sapiens, UniProt P06239).
T12 construct: purchased Upstate (KinaseProfiler panel)
The description is as above. As to conditions: read-out: percentage inhibition of lck. How it is done:
as §1

Assay [14] deals with T13, Tie2 (Homo sapiens, UniProt Q02763).
T13 construct: purchased Upstate (KinaseProfiler panel)
The assay is described as above. As to conditions: read-out: percentage inhibition of Tie2. How it is done:
as §1

T7 sequence (Q15759 whole entry): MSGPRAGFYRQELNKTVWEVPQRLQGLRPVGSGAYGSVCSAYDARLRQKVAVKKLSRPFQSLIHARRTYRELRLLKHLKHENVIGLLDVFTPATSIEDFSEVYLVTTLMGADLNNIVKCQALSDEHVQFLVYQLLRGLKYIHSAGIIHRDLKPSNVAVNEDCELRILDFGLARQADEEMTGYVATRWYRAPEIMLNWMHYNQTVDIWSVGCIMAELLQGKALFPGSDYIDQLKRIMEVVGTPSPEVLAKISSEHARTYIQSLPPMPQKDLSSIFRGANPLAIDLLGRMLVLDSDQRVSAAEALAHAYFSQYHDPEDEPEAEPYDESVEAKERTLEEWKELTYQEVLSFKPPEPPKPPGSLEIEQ
T3 sequence (P12931 whole entry, species assumed): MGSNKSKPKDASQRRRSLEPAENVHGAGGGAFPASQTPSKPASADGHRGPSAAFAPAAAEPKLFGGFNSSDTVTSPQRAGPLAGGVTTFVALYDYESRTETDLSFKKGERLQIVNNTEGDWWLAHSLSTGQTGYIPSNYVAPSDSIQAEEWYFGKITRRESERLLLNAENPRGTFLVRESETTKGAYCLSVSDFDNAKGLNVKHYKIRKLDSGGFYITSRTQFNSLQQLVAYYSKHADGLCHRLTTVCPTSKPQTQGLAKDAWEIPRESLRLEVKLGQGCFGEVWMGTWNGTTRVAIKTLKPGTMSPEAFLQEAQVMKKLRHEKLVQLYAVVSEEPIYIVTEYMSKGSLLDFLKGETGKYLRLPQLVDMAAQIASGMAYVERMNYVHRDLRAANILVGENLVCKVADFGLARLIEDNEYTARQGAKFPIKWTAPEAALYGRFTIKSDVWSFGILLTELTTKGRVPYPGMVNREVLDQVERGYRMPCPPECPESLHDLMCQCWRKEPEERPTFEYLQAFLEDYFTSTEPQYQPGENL
T13 sequence (Q02763 23-1124): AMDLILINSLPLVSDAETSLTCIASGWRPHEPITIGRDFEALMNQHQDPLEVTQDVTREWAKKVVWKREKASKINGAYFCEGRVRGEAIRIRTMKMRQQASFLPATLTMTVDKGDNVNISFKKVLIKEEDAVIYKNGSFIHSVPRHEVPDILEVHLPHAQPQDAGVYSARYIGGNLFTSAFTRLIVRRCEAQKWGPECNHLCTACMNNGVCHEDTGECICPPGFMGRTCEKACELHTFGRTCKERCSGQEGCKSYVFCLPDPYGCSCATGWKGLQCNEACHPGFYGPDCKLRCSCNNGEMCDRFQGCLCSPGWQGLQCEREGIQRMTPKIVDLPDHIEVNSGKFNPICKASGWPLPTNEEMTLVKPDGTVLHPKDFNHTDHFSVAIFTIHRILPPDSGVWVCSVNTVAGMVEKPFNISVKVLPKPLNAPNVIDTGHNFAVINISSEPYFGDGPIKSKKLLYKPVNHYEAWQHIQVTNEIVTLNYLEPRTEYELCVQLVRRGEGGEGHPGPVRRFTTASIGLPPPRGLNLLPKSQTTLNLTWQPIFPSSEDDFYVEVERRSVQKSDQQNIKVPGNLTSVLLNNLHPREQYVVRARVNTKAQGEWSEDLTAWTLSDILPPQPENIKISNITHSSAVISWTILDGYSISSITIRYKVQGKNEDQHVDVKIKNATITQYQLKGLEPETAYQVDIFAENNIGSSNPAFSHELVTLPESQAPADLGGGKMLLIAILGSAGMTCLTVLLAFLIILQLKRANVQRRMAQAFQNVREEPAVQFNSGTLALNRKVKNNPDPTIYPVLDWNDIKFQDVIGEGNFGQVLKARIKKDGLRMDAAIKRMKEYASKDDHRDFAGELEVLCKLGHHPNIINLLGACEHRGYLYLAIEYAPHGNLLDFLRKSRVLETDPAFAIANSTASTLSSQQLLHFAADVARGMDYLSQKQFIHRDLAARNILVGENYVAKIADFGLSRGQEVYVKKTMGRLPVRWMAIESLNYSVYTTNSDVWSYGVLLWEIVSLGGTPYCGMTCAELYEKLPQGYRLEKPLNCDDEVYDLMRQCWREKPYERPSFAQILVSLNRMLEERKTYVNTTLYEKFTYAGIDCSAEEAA
T10 sequence (P04049 whole entry, species assumed): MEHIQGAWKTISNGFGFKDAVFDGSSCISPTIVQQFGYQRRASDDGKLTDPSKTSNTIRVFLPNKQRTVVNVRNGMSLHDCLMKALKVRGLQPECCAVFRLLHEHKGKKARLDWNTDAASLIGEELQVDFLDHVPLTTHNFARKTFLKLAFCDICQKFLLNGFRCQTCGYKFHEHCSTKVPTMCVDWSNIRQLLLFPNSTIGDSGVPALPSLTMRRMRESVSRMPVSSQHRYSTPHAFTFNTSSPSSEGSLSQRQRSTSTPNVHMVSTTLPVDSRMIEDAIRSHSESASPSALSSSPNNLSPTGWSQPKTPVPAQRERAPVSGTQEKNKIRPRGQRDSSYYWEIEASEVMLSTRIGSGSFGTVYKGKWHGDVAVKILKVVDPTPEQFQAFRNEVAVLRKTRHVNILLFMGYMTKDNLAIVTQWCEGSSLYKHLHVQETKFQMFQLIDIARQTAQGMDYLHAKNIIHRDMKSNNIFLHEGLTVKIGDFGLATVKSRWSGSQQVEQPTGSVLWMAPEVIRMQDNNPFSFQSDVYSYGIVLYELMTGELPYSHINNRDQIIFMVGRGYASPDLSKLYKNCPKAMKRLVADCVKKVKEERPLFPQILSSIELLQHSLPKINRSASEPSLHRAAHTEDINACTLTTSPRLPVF
T1 sequence (Q16620 32-822): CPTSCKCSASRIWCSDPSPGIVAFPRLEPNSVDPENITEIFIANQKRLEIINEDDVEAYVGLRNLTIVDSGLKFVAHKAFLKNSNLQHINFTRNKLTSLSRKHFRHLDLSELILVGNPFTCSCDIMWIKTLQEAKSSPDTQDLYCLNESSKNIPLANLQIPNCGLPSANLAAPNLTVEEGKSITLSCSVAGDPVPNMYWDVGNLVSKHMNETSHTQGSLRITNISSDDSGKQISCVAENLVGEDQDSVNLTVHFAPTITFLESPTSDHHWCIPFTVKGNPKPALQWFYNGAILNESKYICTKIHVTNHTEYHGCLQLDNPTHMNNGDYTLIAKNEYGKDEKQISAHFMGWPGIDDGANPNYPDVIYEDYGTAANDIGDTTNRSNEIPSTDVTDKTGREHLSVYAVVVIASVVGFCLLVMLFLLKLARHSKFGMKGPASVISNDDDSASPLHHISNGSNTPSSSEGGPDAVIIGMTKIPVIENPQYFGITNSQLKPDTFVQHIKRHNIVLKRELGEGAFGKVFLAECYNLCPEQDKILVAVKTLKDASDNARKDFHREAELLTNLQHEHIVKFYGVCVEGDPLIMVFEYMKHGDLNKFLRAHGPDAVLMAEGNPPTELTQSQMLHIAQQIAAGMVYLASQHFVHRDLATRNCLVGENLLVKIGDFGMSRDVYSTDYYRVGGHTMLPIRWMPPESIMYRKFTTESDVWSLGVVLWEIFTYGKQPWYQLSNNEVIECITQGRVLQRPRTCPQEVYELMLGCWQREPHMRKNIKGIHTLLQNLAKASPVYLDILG
T8 sequence (P52564 whole entry, species assumed): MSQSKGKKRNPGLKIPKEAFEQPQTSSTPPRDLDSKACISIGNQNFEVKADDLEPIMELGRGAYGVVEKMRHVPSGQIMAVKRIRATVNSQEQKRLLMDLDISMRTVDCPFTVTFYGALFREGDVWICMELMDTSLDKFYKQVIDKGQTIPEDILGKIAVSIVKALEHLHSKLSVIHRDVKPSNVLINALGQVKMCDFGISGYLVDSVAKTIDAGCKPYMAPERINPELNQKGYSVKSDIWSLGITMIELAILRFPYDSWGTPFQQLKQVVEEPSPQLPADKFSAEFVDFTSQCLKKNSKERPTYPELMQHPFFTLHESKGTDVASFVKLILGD
T11 sequence (P23443 whole entry): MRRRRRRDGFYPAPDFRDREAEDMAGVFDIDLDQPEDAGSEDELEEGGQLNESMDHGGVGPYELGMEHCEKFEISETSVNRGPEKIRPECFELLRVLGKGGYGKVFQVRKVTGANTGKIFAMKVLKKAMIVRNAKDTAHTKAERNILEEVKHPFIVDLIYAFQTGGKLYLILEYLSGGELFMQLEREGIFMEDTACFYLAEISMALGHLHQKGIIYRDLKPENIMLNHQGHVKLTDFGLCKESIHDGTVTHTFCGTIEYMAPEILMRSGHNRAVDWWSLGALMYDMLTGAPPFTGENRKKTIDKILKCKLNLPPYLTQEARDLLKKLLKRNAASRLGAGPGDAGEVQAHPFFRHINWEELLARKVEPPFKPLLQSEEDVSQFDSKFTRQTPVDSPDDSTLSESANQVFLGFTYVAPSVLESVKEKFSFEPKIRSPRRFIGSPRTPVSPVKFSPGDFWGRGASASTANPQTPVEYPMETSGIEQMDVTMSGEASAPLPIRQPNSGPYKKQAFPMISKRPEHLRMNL
T9 sequence (P41240 whole entry, species assumed): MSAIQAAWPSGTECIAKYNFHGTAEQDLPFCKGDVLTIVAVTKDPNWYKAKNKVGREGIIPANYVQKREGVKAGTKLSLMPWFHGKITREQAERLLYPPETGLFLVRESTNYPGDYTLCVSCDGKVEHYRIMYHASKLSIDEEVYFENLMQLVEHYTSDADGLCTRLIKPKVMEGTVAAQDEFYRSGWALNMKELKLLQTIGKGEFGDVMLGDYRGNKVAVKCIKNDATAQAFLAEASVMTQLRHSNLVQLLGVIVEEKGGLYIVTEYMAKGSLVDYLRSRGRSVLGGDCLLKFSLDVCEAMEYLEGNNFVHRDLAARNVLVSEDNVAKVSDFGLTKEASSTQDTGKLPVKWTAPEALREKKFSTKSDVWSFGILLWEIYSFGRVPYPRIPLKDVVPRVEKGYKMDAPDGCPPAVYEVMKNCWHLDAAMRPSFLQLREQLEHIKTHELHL

As to `Cc1ccc(NC(=O)c2cccc(C(F)(F)F)c2)cc1NC(=O)N(CCCN1CCCC1=O)c1cc(N)ncn1` [Example 215, N-(3-{3-(6-Amino-pyrimidin-4-yl)-3-[3-(2-oxo-pyrrolidin-1-yl)-propyl]-ureido}-4-methyl-phenyl)-3-trifluoromethyl-benzamide], in assay [1], the IC50 (as a rule, the concentration that gives 50% inhibition) was determined as 2 nM. Further, the inhibition (usually the percentage by which the read-out fell short of the control) at 10 µM is 99% in assay [2]; 93% in assay [3]; 100% in [4]; 99% in [5]; 99% in assay [6]; 95% in [7]. For the same compound, the inhibition at 10 µM in [8] is 99%; in assay [9], 88%; in [10], 97%; in [11], 99%; in assay [12] it was 81%; in assay [13] it was 100%. The inhibition at 10 µM in assay [14] came to 100%.
